Experiment: Powder flowability (flow factor FFc), FT4 powder rheometer
Assay type: physicochemical
Conditions: Compound 1 alone
Method: For the simulation of the DG process, compression pressure was adjusted to produce ribbon of different porosity. The flowability and compressibility of either preblend or milled ribbon was measured to evaluate the manufacturability of each formulation on the DC and the DG processes. The peak force value of compression and the vertical projection area of tooling were used to calculate the maximum compression pressure (CP). Powder flowability (i.e., flow factor (FFc)) was measured using the FT4 powder rheometer with the characterization method of 3 kPa pre-consolidation and 10 ml filling volume (Freeman Technology, Tewkesbury UK). This method was applied because it was representative of powder flow scenarios in most pharmaceutical manufacturing processes. The true density of powder was measured using the AccuPyc 1340 pycnometer (Micrometrics, Norcross Ga. USA) to calculate porosity of the ribbon.

## Cc1[nH]ncc1-c1cc2nc([C@@H]3CC4CCN3CC4)[nH]c(=O)c2s1 [Compound 1, 2-[(2S)-1-azabicyclo[2.2.2]oct-2-yl]-6-(3-methyl-1H-pyrazol-4-yl)thieno[3,2-d]pyrimidin-4(3H)-one]
  flow factor: about 2.3

Reference: patent US20210308061A1, “PHARMACEUTICAL COMPOSITIONS WITH A CDC7 INHIBITOR” (TAKED PHARMACEUTICAL COMPANY LIMITED, priority 2018, published 2021)
